Reference: ChEMBL document CHEMBL1201862, “PubChem BioAssay data set” (2004)
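Protocol summary: plate cells (96-well), add compound at 5 concentrations, incubate 48 h, interpolate endpoints linearly. Abbreviation: GI50, concentration required for 50% inhibition of growth.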 Active and inactive are the calls of the source. Cut-off read from the data, not from the text of the source: active = GI50 up to about 1.1 µM and inactive = higher.

What was measured:
Assay in all cases: inhibition of tumour cell growth, NCI panel, 48 h
SNB-19 = tested on: SNB-19
SW-620 = tested on: SW-620
RPMI-8226 = tested on: RPMI-8226
SK-MEL-5 = tested on: SK-MEL-5
SR = tested on: SR
UACC-257 = tested on: UACC-257
HCC 2998 = tested on: HCC 2998
OVCAR-8 = tested on: OVCAR-8
M14 = tested on: M14
TK-10 = tested on: TK-10
LOX IMVI = tested on: LOX IMVI
EKVX = tested on: EKVX
CCRF-CEM = tested on: CCRF-CEM
SF-295 = tested on: SF-295
SF-539 = tested on: SF-539
SK-MEL-2 = tested on: SK-MEL-2
NCI/ADR-RES = tested on: NCI/ADR-RES
NCI-H460 = tested on: NCI-H460
786-0 = tested on: 786-0
NCI-H522 = tested on: NCI-H522

Measured: GI50

Cn1c(=O)cc(NCCc2ccccc2)[nH]c1=O
inactive: SNB-19 77.8 µM | SW-620 27.5 µM | RPMI-8226 6.12 µM | SK-MEL-5 18.8 µM | SR 9.1 µM | UACC-257 50 µM | HCC 2998 27.8 µM | OVCAR-8 43.4 µM | M14 27.8 µM | TK-10 > 100 µM | LOX IMVI 46.6 µM | EKVX 54.7 µM | CCRF-CEM 31.7 µM | SF-295 20.9 µM | SF-539 39.4 µM | SK-MEL-2 51.1 µM | NCI/ADR-RES 24.7 µM | NCI-H460 34.2 µM | 786-0 41 µM

Cc1nc(N)nc(S)c1CCCNc1ccccc1
inactive: SNB-19 89.7 µM | SW-620 > 100 µM | RPMI-8226 27.2 µM | SK-MEL-5 27.5 µM | SR 3.6 µM | UACC-257 26.9 µM | NCI-H522 34.4 µM | OVCAR-8 20.5 µM | M14 52.4 µM | TK-10 63.8 µM | LOX IMVI 54.5 µM | EKVX 60 µM | CCRF-CEM 28 µM | SF-295 56.4 µM | SF-539 95.7 µM | SK-MEL-2 60.1 µM | NCI/ADR-RES > 100 µM | NCI-H460 35 µM | 786-0 > 100 µM

COC(=O)c1cc(=O)nc2sc3cccc(C)c3n12
inactive: SNB-19 46.3 µM | SW-620 30.3 µM | RPMI-8226 22 µM | SK-MEL-5 60.7 µM | SR 24 µM | UACC-257 65 µM | NCI-H522 23.2 µM | OVCAR-8 20.9 µM | M14 33.1 µM | TK-10 > 100 µM | LOX IMVI 14.8 µM | EKVX 29.6 µM | CCRF-CEM 20.2 µM | SF-295 67 µM | SF-539 34.1 µM | SK-MEL-2 30.3 µM | NCI/ADR-RES > 100 µM | NCI-H460 68.7 µM | 786-0 21.3 µM

O=C(N/C(=C/c1ccc(Cl)cc1Cl)c1nc2ccccc2s1)c1ccccc1
inactive: SNB-19 19.5 µM | SW-620 10.7 µM | RPMI-8226 12.1 µM | SK-MEL-5 13.5 µM | SR 9.27 µM | UACC-257 13.4 µM | NCI-H522 8.34 µM | OVCAR-8 18.6 µM | M14 17.7 µM | TK-10 21 µM | LOX IMVI 5.32 µM | EKVX 18.5 µM | CCRF-CEM 4.72 µM | SF-295 12.7 µM | SF-539 15.5 µM | SK-MEL-2 17.7 µM | NCI/ADR-RES 15.6 µM | NCI-H460 17.8 µM | 786-0 12.9 µM

CC(C)(C)[Si](C)(C)OCC1OC(n2cnc3c(N)ncnc32)C(O)C1O (centres undefined)
inactive: SNB-19 > 100 µM | SW-620 > 100 µM | RPMI-8226 81.3 µM | SK-MEL-5 26.5 µM | SR 60.8 µM | UACC-257 > 100 µM | NCI-H522 > 100 µM | OVCAR-8 > 100 µM | M14 > 100 µM | TK-10 > 100 µM | LOX IMVI > 100 µM | EKVX > 100 µM | CCRF-CEM 95.9 µM | SF-295 > 100 µM | SF-539 > 100 µM | SK-MEL-2 > 100 µM | NCI/ADR-RES 87.7 µM | NCI-H460 > 100 µM | 786-0 > 100 µM

C=C1CC[C@H]2C(C)=CC[C@H]3C(=C)C(=O)O[C@@H]3[C@@H]12 [EREMANTHIN]
inactive: SNB-19 > 100 µM | SW-620 > 100 µM | SK-MEL-5 > 100 µM | SR > 100 µM | UACC-257 > 100 µM | NCI-H522 > 100 µM | HCC 2998 > 100 µM | OVCAR-8 > 100 µM | M14 > 100 µM | TK-10 > 100 µM | LOX IMVI > 100 µM | EKVX > 100 µM | CCRF-CEM > 100 µM | SF-295 > 100 µM | SF-539 > 100 µM | SK-MEL-2 > 100 µM | NCI/ADR-RES > 100 µM | NCI-H460 > 100 µM | 786-0 > 100 µM
